O=c1cnc(Br)c[nH]1
solubility (mole fraction) (in DMF, 278.15 K): 0.00576
solubility (mole fraction) (in DMF, 283.15 K): 0.00768
solubility (mole fraction) (in DMF, 288.15 K): 0.00988
solubility (mole fraction) (in DMF, 293.15 K): 0.0124
solubility (mole fraction) (in DMF, 298.15 K): 0.0151
solubility (mole fraction) (in DMF, 303.15 K): 0.0181
solubility (mole fraction) (in DMF, 308.15 K): 0.0219
solubility (mole fraction) (in DMF, 313.15 K): 0.026
solubility (mole fraction) (in DMF, 318.15 K): 0.0309
solubility (mole fraction) (in DMF, 323.15 K): 0.0365
solubility (mole fraction) (in acetone, 278.15 K): 0.00534
solubility (mole fraction) (in acetone, 283.15 K): 0.00685
solubility (mole fraction) (in acetone, 288.15 K): 0.00877
solubility (mole fraction) (in acetone, 293.15 K): 0.0106
solubility (mole fraction) (in acetone, 298.15 K): 0.013
solubility (mole fraction) (in acetone, 303.15 K): 0.0161
solubility (mole fraction) (in acetone, 308.15 K): 0.0194
solubility (mole fraction) (in acetone, 313.15 K): 0.023
solubility (mole fraction) (in acetone, 318.15 K): 0.0275
solubility (mole fraction) (in acetone, 323.15 K): 0.0328
solubility (mole fraction) (in acetonitrile, 278.15 K): 0.00413
solubility (mole fraction) (in acetonitrile, 283.15 K): 0.00519
solubility (mole fraction) (in acetonitrile, 288.15 K): 0.00625
solubility (mole fraction) (in acetonitrile, 293.15 K): 0.00766
solubility (mole fraction) (in acetonitrile, 298.15 K): 0.00941
solubility (mole fraction) (in acetonitrile, 303.15 K): 0.0113
solubility (mole fraction) (in acetonitrile, 308.15 K): 0.0136
solubility (mole fraction) (in acetonitrile, 313.15 K): 0.0161
solubility (mole fraction) (in acetonitrile, 318.15 K): 0.019
solubility (mole fraction) (in acetonitrile, 323.15 K): 0.0222
solubility (mole fraction) (in ethanol, 278.15 K): 0.000696
solubility (mole fraction) (in ethanol, 283.15 K): 0.000989
solubility (mole fraction) (in ethanol, 288.15 K): 0.00128
solubility (mole fraction) (in ethanol, 293.15 K): 0.00166
solubility (mole fraction) (in ethanol, 298.15 K): 0.0021
solubility (mole fraction) (in ethanol, 303.15 K): 0.00251
solubility (mole fraction) (in ethanol, 308.15 K): 0.00303
solubility (mole fraction) (in ethanol, 313.15 K): 0.0036
solubility (mole fraction) (in ethanol, 318.15 K): 0.00434
solubility (mole fraction) (in ethanol, 323.15 K): 0.00525
solubility (mole fraction) (in ethylene glycol, 278.15 K): 0.00014
solubility (mole fraction) (in ethylene glycol, 283.15 K): 0.000203
solubility (mole fraction) (in ethylene glycol, 288.15 K): 0.000284
solubility (mole fraction) (in ethylene glycol, 293.15 K): 0.000386
solubility (mole fraction) (in ethylene glycol, 298.15 K): 0.000504
solubility (mole fraction) (in ethylene glycol, 303.15 K): 0.00065
solubility (mole fraction) (in ethylene glycol, 308.15 K): 0.000845
solubility (mole fraction) (in ethylene glycol, 313.15 K): 0.00111
solubility (mole fraction) (in ethylene glycol, 318.15 K): 0.00139
solubility (mole fraction) (in ethylene glycol, 323.15 K): 0.00174
solubility (mole fraction) (in isopropanol, 278.15 K): 0.00258
solubility (mole fraction) (in isopropanol, 283.15 K): 0.00333
solubility (mole fraction) (in isopropanol, 288.15 K): 0.00439
solubility (mole fraction) (in isopropanol, 293.15 K): 0.00534
solubility (mole fraction) (in isopropanol, 298.15 K): 0.00678
solubility (mole fraction) (in isopropanol, 303.15 K): 0.00863
solubility (mole fraction) (in isopropanol, 308.15 K): 0.0109
solubility (mole fraction) (in isopropanol, 313.15 K): 0.0135
solubility (mole fraction) (in isopropanol, 318.15 K): 0.0168
solubility (mole fraction) (in isopropanol, 323.15 K): 0.0205
solubility (mole fraction) (in methanol, 278.15 K): 0.000272
solubility (mole fraction) (in methanol, 283.15 K): 0.000366
solubility (mole fraction) (in methanol, 288.15 K): 0.000485
solubility (mole fraction) (in methanol, 293.15 K): 0.000633
solubility (mole fraction) (in methanol, 298.15 K): 0.000782
solubility (mole fraction) (in methanol, 303.15 K): 0.000951
solubility (mole fraction) (in methanol, 308.15 K): 0.00116
solubility (mole fraction) (in methanol, 313.15 K): 0.0014
solubility (mole fraction) (in methanol, 318.15 K): 0.00169
solubility (mole fraction) (in methanol, 323.15 K): 0.00203
solubility (mole fraction) (in n-propanol, 278.15 K): 0.00382
solubility (mole fraction) (in n-propanol, 283.15 K): 0.00472
solubility (mole fraction) (in n-propanol, 288.15 K): 0.00579
solubility (mole fraction) (in n-propanol, 293.15 K): 0.0072
solubility (mole fraction) (in n-propanol, 298.15 K): 0.00879
solubility (mole fraction) (in n-propanol, 303.15 K): 0.0106
solubility (mole fraction) (in n-propanol, 308.15 K): 0.0129
solubility (mole fraction) (in n-propanol, 313.15 K): 0.0152
solubility (mole fraction) (in n-propanol, 318.15 K): 0.018
solubility (mole fraction) (in n-propanol, 323.15 K): 0.0213
solubility (mole fraction) (in propylene glycol, 278.15 K): 0.000194
solubility (mole fraction) (in propylene glycol, 283.15 K): 0.00025
solubility (mole fraction) (in propylene glycol, 288.15 K): 0.000338
solubility (mole fraction) (in propylene glycol, 293.15 K): 0.000448
solubility (mole fraction) (in propylene glycol, 298.15 K): 0.000589
solubility (mole fraction) (in propylene glycol, 303.15 K): 0.000766
solubility (mole fraction) (in propylene glycol, 308.15 K): 0.000961
solubility (mole fraction) (in propylene glycol, 313.15 K): 0.00121
solubility (mole fraction) (in propylene glycol, 318.15 K): 0.00152
solubility (mole fraction) (in propylene glycol, 323.15 K): 0.00187
solubility (mole fraction) (in water, 278.15 K): 8.21e-06
solubility (mole fraction) (in water, 283.15 K): 1.29e-05
solubility (mole fraction) (in water, 288.15 K): 1.81e-05
solubility (mole fraction) (in water, 293.15 K): 2.46e-05
solubility (mole fraction) (in water, 298.15 K): 3.2e-05
solubility (mole fraction) (in water, 303.15 K): 4.13e-05
solubility (mole fraction) (in water, 308.15 K): 5.32e-05
solubility (mole fraction) (in water, 313.15 K): 6.69e-05
solubility (mole fraction) (in water, 318.15 K): 8.43e-05
solubility (mole fraction) (in water, 323.15 K): 0.000106

Source: BigSolDB 2.1
